In PMC7470027, “Synthesis and structure-activity relationships of novel 5-(hydroxamic acid)methyl oxazolidinone derivatives as 5-lipoxygenase inhibitors” (Journal of Enzyme Inhibition and Medicinal Chemistry, 2020):
pIC50: −log10 of the molar value.

Biological target: T1, recombinant human 5-LO (Homo sapiens, UniProt P09917)
T1 sequence (P09917 1-674): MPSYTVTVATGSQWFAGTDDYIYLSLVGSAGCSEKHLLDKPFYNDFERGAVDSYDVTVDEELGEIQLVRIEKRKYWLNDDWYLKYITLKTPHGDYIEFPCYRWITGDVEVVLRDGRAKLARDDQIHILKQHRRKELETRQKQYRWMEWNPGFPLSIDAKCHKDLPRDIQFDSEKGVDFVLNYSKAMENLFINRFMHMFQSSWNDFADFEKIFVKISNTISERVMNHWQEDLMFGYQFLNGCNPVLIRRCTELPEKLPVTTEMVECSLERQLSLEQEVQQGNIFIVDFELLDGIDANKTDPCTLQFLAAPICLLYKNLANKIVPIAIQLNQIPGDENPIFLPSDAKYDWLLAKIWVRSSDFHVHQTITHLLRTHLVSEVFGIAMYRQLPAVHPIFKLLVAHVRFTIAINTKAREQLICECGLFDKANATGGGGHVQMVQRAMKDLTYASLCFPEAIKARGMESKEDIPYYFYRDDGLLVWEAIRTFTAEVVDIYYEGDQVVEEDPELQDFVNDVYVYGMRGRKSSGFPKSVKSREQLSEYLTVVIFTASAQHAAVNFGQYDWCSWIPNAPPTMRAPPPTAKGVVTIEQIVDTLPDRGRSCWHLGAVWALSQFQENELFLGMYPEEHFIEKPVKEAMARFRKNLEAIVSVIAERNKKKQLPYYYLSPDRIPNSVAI
Assay: Direct inhibition of 5-LO activity in a cell-free assay (H2DCF-DA fluorescence)
Assay type: biochemical
Conditions: cell-free, recombinant human 5-LO; 95% confidence interval in brackets
Protocol: The assay was based on the oxidation of the dye 2′,7′-dichlorodihydrofluorescein diacetate (H2DCF-DA) to a highly fluorescent product by 5-LO enzymatic products. H2DCF-DA (60 µM) was first pre-cleaved by incubating with 450 mU/ml recombinant human 5-LO enzyme in Tris buffer (containing 50 mM Tris, pH = 7.5, 2 mM EDTA, 2 mM CaCl2, 1 mM DTT and 0.6 U/ml glutathione peroxidase) for 10 min at room temperature. […] After 10 min incubation at room temperature, the reaction was started with the addition of 50 µl of substrate solution (Tris buffer containing 20 µM ATP and 20 µM arachidonic acid (AA). After a further 20 min, the reaction was terminated with 100 µl acetonitrile. Fluorescence was read at 500 nm excitation and 520 nm emission, with Novostar^R microplate reader (BMG Labtech, Offenburg, Germany). Appropriate controls, including 100 µM nordihydroguaiaretic acid (NDGA), were included to isolate only the 5-LO-attributable, NDGA-inhibitable RFU values.
All data were analysed using GraphPad Prism software (GraphPad Software, San Diego, CA). […] Differences between experimental groups were first analysed by one-way ANOVA, followed by Bonferroni’s post-hoc test. A p-value of less than 0.05 was taken as statistically significant.

Work on `CCCCCCC(=O)N(O)C[C@H]1CN(c2ccc(N3CCOCC3)c(F)c2)C(=O)O1` [PH-249, (R)-N-((3-(3-fluoro-4-morpholinophenyl)-2-oxooxazolidin-5-yl)methyl)-N-hydroxyheptanamide] yielded a pIC50 of 5.72.
